# Laboratory results as given in the supplement of paper PMC11208160.
# Assay: recombinant UMI read abundance after kanamycin selection (control-corrected) (log10(CPM+1)); higher = more efficient recombination; extreme values may be limits of the assay; sequences stand for … in AGTGCAGAGAAAATCGGCCAGTTTTCTCTGCCTGCAGTCCGCATGCCGTGGGACCCCTTGGGTTCTAACCTGTTGCCTAGATTTATGCAGCGGACTGCCTTTCTCCCAAAGTGATAAACCGG…AGGTTGGTTTCACT; site = the 11-nt donor
# Outline: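 Under IPTG (0.07 mM) plus kanamycin, or without selection, Escherichia coli carrying a UMI-tagged donor and donor-binding-loop pair library and a target plasmid for the IS621 bridge recombinase were plated in two replicates. Recombinant UMIs were PCR-amplified across the donor–target junction and sequenced. Counts were converted to CPM, averaged over replicates, scaled by control-derived factors and reported as log10(CPM+1).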
# 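Also: IS621 bridge recombinase in Escherichia coli cells against a fixed T5 target plasmid.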
row,Sequence,recombinant UMI read abundance (log10)
1,TACTTGACATGGACCGGTTTTCCCGGTAATCCGTATTTGAT (site TACTTGACTAT),0.476
2,TACTTGACATGGACCGGTTTTCCCGGTAATCCGTATTTGCG (site TACTTGACTAG),0.00183
3,TACTTGACATGGACCGGTTTTCCCGGTAATCCGTATTTGCG (site TACTTGACTCG),0.524
4,TACTTGACATGGACCGGTTTTCCCGGTAATCCGTATTTGCG (site TACTTGACTGG),0
5,TACTTGACATGGACCGGTTTTCCCGGTAATCCGTATTTGCG (site TACTTGACTTG),0
6,TACTTGACATGGACCGGTTTTCCCGGTAATCCGTATTTGTT (site TACTTGACTAA),0.00709
7,TACTTGACATGGACCGGTTTTCCCGGTAATCCGTATTTGTT (site TACTTGACTAC),0.0106
8,TACTTGACATGGACCGGTTTTCCCGGTAATCCGTATTTGTT (site TACTTGACTAG),0.00636
9,TACTTGACATGGACCGGTTTTCCCGGTAATCCGTATTTGTT (site TACTTGACTAT),0.00466
10,TACTTGGCATGGACCGGTTTTCCCGGTAATCCGTATTTGCT (site TACTTGACTAG),0.00409
11,TACTTGGCATGGACCGGTTTTCCCGGTAATCCGTATTTGCT (site TACTTGCCTAG),0.00558
12,TACTTGGCATGGACCGGTTTTCCCGGTAATCCGTATTTGCT (site TACTTGGCTAG),0.00377
13,TACTTGGCATGGACCGGTTTTCCCGGTAATCCGTATTTGCT (site TACTTGTCTAG),0
14,TACTTGGCATGGACCGGTTTTCCCGGTAATCCGTATTTGGA (site AACTTGGCTTC),0.0162
15,TACTTGGCATGGACCGGTTTTCCCGGTAATCCGTATTTGGA (site CACTTGGCTTC),0.00371
16,TACTTGGCATGGACCGGTTTTCCCGGTAATCCGTATTTGGA (site GACTTGGCTTC),0.00882
17,TACTTGGCATGGACCGGTTTTCCCGGTAATCCGTATTTGGA (site TACTTGGCTTC),0.216
18,TACTTGTCATGGACCGGTTTTCCCGGTAATCCGTATTTGGG (site TACTTGTCTCC),0.17
19,TACTTTACATGGACCGGTTTTCCCGGTAATCCGTATTTGCT (site TACTTAACTAG),0

row,Sequence,recombinant UMI read abundance (log10)
1,TACTTTACATGGACCGGTTTTCCCGGTAATCCGTATTTGCT (site TACTTCACTAG),1.36
2,TACTTTACATGGACCGGTTTTCCCGGTAATCCGTATTTGCT (site TACTTGACTAG),0.00292
3,TACTTTACATGGACCGGTTTTCCCGGTAATCCGTATTTGCT (site TACTTTACTAG),1.01
4,TAGAATACATGGACCGGTTTTCCCGGTAATCCGTATTTGGA (site TAGAATACTTA),0.00272
5,TAGAATACATGGACCGGTTTTCCCGGTAATCCGTATTTGGA (site TAGAATACTTC),1.99
6,TAGAATACATGGACCGGTTTTCCCGGTAATCCGTATTTGGA (site TAGAATACTTG),0
7,TAGAATACATGGACCGGTTTTCCCGGTAATCCGTATTTGGA (site TAGAATACTTT),0.731
8,TAGACAACATGGACCGGTTTTCCCGGTAATCCGTATTTGAG (site TAGACAACTCT),0.821
9,TAGAGCGCATGGACCGGTTTTCCCGGTAATCCGTATTTGTG (site TAGAGCGCTCA),1.05
10,TAGAGTACATGGACCGGTTTTCCCGGTAATCCGTATTTGCA (site TAGAATACTTG),1.37
11,TAGAGTACATGGACCGGTTTTCCCGGTAATCCGTATTTGCA (site TAGACTACTTG),0.88
12,TAGAGTACATGGACCGGTTTTCCCGGTAATCCGTATTTGCA (site TAGAGTACTTG),2.08
13,TAGAGTACATGGACCGGTTTTCCCGGTAATCCGTATTTGCA (site TAGATTACTTG),0
14,TAGATAACATGGACCGGTTTTCCCGGTAATCCGTATTTGTG (site TAGATAACTCA),1.2
15,TAGATAGCATGGACCGGTTTTCCCGGTAATCCGTATTTGAA (site TAGATAGCTTT),2.07
16,TAGATAGCATGGACCGGTTTTCCCGGTAATCCGTATTTGAA (site TAGCTAGCTTT),0.0111
17,TAGATAGCATGGACCGGTTTTCCCGGTAATCCGTATTTGAA (site TAGGTAGCTTT),0.0819
18,TAGATAGCATGGACCGGTTTTCCCGGTAATCCGTATTTGAA (site TAGTTAGCTTT),0.173
19,TAGCACGCATGGACCGGTTTTCCCGGTAATCCGTATTTGGG (site AAGCACGCTCC),0.0104

row,Sequence,recombinant UMI read abundance (log10)
1,TAGCACGCATGGACCGGTTTTCCCGGTAATCCGTATTTGGG (site CAGCACGCTCC),0.00759
2,TAGCACGCATGGACCGGTTTTCCCGGTAATCCGTATTTGGG (site GAGCACGCTCC),0.0209
3,TAGCACGCATGGACCGGTTTTCCCGGTAATCCGTATTTGGG (site TAGCACGCTCC),0.0358
4,TAGCCGTCATGGACCGGTTTTCCCGGTAATCCGTATTTGGT (site TAGCCATCTAC),0.764
5,TAGCCGTCATGGACCGGTTTTCCCGGTAATCCGTATTTGGT (site TAGCCCTCTAC),0
6,TAGCCGTCATGGACCGGTTTTCCCGGTAATCCGTATTTGGT (site TAGCCGTCTAC),0.776
7,TAGCCGTCATGGACCGGTTTTCCCGGTAATCCGTATTTGGT (site TAGCCTTCTAC),0.013
8,TAGCCTTCATGGACCGGTTTTCCCGGTAATCCGTATTTGGA (site TAGCCTTCTAC),0.0179
9,TAGCCTTCATGGACCGGTTTTCCCGGTAATCCGTATTTGGA (site TAGCCTTCTCC),0.02
10,TAGCCTTCATGGACCGGTTTTCCCGGTAATCCGTATTTGGA (site TAGCCTTCTGC),0
11,TAGCCTTCATGGACCGGTTTTCCCGGTAATCCGTATTTGGA (site TAGCCTTCTTC),0.00303
12,TAGCCTTCATGGACCGGTTTTCCCGGTAATCCGTATTTGGG (site TAGCCTTCTAC),0
13,TAGCCTTCATGGACCGGTTTTCCCGGTAATCCGTATTTGGG (site TAGCCTTCTCC),0.0175
14,TAGCCTTCATGGACCGGTTTTCCCGGTAATCCGTATTTGGG (site TAGCCTTCTGC),0
15,TAGCCTTCATGGACCGGTTTTCCCGGTAATCCGTATTTGGG (site TAGCCTTCTTC),0.0097
16,TAGCGAACATGGACCGGTTTTCCCGGTAATCCGTATTTGGA (site TAGCGAACTTC),1.05
17,TAGCGAGCATGGACCGGTTTTCCCGGTAATCCGTATTTGAA (site TAGCAAGCTTT),1.3
18,TAGCGAGCATGGACCGGTTTTCCCGGTAATCCGTATTTGAA (site TAGCCAGCTTT),0.0145
19,TAGCGAGCATGGACCGGTTTTCCCGGTAATCCGTATTTGAA (site TAGCGAGCTTT),1.41
